Test results: patent US7569547B2, “Inhibiting furin with polybasic peptides” (Board of Supervisors of Louisiana State University and …, priority 2001, dated 2009)
Read-outs that look alike come from different tables or passages of the source.

Legend:
PC2 [1] = biological target: T1, PC2 (Mus musculus, UniProt P21661); test: PC2 enzyme assay, hydrolysis of pERTKR-MCA at pH 5.0; assay type: biochemical; design: made in house; conditions: data not shown
T1 sequence (P21661 109-637): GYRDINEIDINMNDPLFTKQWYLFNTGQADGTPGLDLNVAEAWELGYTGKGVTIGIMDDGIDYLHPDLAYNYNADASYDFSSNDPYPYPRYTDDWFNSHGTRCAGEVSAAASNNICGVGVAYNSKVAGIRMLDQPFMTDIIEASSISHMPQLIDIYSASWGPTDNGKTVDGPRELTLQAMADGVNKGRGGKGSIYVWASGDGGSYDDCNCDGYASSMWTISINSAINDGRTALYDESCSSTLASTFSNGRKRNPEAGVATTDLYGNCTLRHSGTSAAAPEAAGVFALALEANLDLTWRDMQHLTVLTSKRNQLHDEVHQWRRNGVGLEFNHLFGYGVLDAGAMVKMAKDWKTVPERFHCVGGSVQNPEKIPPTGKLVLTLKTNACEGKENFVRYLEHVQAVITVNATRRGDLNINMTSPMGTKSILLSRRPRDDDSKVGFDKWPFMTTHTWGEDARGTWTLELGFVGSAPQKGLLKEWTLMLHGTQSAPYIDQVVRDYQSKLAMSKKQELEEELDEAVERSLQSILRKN
Description: The proprotein convertases PC1 and PC2 were prepared by ion exchange chromatography as described in G. Frenette et al., Biochim. Biophys. Acta., vol. 1334, pp. 109-115 (1997).
(§1) Enzyme Assays and Hexapeptide Library Screening. Enzyme assays for PC1 and PC2 were performed at pH 5.0 using pERTKR-MCA (Peptides International Inc., Louisville, Ky.) as described in E. Apletalina et al., J. Biol. Chem., vol. 273, pp. 26589-26595 (1998). The assay for furin was performed using the same substrate at pH 7.0 in 100 mM HEPES, 5 mM CaCl2, 0.1% Brij 35. All assays were performed at 37° C. in a 96 well fluorometer (Labsystems) at an excitation wavelength of 380 nm with emission monitored at a wavelength of 460 nm. The total volume was 50 μL. Unless otherwise stated, the final substrate concentration for all assays was 200 μM. When used in a particular experiment, the inhibitory peptides were pre-incubated with enzyme for 30 min at room temperature prior to addition of substrate. All assays were performed in duplicate or triplicate.

PACE4 = biological target: T2, PACE4 (Rattus norvegicus, UniProt Q63415); test: PACE4 enzyme assay, hydrolysis of pERTKR-MCA; assay type: biochemical
T2 construct: made in house; host or cells: stably transfected hEK-293 cells (gift of R. E. Mains), conditioned medium
T2 sequence (Q63415 133-937): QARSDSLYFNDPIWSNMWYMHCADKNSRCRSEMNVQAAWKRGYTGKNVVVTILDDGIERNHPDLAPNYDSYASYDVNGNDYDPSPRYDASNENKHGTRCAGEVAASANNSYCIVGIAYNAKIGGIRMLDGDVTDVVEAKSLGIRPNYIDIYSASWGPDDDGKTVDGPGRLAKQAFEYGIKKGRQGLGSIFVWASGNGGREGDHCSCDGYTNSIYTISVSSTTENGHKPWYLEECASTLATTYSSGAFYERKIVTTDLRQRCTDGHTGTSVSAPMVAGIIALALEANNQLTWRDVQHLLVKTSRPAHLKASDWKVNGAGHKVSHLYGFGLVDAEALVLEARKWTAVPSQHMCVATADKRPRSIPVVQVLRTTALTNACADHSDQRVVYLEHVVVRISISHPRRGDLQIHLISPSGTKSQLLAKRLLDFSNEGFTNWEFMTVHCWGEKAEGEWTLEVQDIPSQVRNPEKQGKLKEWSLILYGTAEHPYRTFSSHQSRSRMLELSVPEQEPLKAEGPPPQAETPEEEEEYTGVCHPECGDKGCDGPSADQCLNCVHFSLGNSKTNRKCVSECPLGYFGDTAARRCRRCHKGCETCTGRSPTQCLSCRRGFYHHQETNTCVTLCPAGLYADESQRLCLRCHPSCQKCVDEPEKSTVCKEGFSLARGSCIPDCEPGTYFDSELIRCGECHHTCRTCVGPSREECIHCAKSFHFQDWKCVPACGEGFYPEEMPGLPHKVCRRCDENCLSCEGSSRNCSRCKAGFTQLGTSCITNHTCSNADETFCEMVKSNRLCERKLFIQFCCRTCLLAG
Description: The proprotein convertase PACE4 was partially purified from an overnight-conditioned medium of stably transfected hEK-293 human embryonic kidney cells (a generous gift of R. E. Mains, Johns Hopkins University School of Medicine, Baltimore, Md.). Briefly, 100 mL of conditioned medium (OptiMEM containing 100 μg/mL aprotinin) was loaded onto an Econo-Pac Q (Bio-Rad) column at 4 mL/min, washed with 10 mL of buffer A, and then eluted with a linear gradient of buffer A containing 500 mM NaCl over 50 mL. The active fractions were then diluted 1:4 with buffer A prior to loading onto a Mono Q column (Pharmacia) at 1 mL/min. The PACE4 was eluted with a linear gradient of buffer A containing 500 mM NaCl over 10 mL. The resulting active fractions were then pooled and stored at −80° C. until use.
as §1

furin = biological target: T3, furin (Mus musculus, UniProt P23188); test: Cleavage of polyarginines by furin, HPLC analysis; assay type: biochemical
T3 construct: truncated N-terminally to the transmembrane domain at His^711 using PCR; myc (C, cleaved yes); hexa-His (C, cleaved yes); made in house; host or cells: DG44 CHO cells, conditioned medium
T3 sequence (P23188 108-714 limits assumed): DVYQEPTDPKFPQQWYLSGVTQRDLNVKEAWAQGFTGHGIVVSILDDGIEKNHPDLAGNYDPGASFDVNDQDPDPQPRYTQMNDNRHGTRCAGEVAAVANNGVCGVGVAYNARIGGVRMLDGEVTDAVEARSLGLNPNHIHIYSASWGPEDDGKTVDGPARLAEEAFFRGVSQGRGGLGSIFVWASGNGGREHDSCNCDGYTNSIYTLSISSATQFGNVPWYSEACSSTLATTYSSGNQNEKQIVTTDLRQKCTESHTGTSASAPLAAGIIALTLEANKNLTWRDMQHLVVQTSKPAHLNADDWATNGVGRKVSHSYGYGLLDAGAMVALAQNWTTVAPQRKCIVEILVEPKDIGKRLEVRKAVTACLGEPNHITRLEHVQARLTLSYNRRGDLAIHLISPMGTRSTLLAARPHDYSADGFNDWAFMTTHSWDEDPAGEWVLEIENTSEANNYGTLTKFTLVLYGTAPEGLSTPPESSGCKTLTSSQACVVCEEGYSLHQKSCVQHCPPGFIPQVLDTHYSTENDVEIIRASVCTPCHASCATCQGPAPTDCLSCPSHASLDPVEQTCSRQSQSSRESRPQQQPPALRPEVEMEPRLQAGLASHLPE
Description: Absorbance was monitored at 214 nm. Cleavage products were identified by comparison to polyarginine standards.
Cleavage of Nona-L-arginine (SEQ ID NO 13) and Hexa-L-arginine (SEQ ID NO 14) by Furin. FIGS. 10(a) through (h) depict the cleavage of nona-L-arginine (SEQ ID NO 13) and hexa-L-arginine (SEQ ID NO 14) by furin. Furin (FIGS. (10(b), (c), (d), (e), and (g)) or buffer (FIGS. 10(f) and (h) was incubated with nona-L-arginine (SEQ ID NO 13) (FIGS. 10(b), (c), (d), (e), and (f) or hexa-L-arginine (SEQ ID NO 14) (FIGS. (10(g) and (h) at 37° C. for 0 min (FIG. (10(b)), 40 min (FIG. 10(c)), 6 h (FIG. 10(d)), or 24 h (FIGS. 10(e), (f), (g), and (h) prior to separation by HPLC as described in the experimental procedures. In FIG. 10(a) the simple separation of a standard mixture polyarginines (without enzyme) is shown; the number of residues per poly-L-arginine is indicated by the positions of the arrows at the tops of FIGS. 10(a) and (e).

PC2 [2] = biological target: T1, PC2

Compound | effect on PC2 activity (PC2 [1]) | Ki (PACE4; polyarginine peptides, mean ± S.D., three experiments, read-out: Ki PACE4) | cleavage by furin (furin; after 24 hours incubation) | Ki (PACE4) | cleavage by furin (furin; after six hours incubation) | cleavage by PC2 (PC2 [2]) | time at which cleavage by furin was first observed (furin; 200 μM peptide, 1.7 μM furin, 37° C.) | original peptide remaining (furin; after four hours with furin, 37° C.)
N=C(N)NCCC[C@@H](NC(=O)[C@H](N)CCCN=C(N)N)C(=O)N[C@H](CCCNC(=N)N)C(=O)N[C@H](CCCNC(=N)N)C(=O)N[C@H](CCCNC(=N)N)C(=O)N[C@H](CCCN=C(N)N)C(=O)O [Hexa-D-arginine] | no stimulatory or inhibitory effect | 0.58 ± 0.04 µM | essentially no cleavage |  |  |  |  | 
N=C(N)NCCC[C@H](NC(=O)[C@H](CCCNC(=N)N)NC(=O)[C@H](CCCNC(=N)N)NC(=O)[C@H](CCCNC(=N)N)NC(=O)[C@H](CCCNC(=N)N)NC(=O)[C@@H](N)CCCNC(=N)N)C(=O)O [Hexa-L-arginine] | Stimulates PC2 Activity |  | partial digestion | 0.52 ± 0.045 µM | essentially no cleavage |  |  | 
N=C(N)NCCC[C@H](NC(=O)[C@H](CCCNC(=N)N)NC(=O)[C@H](CCCNC(=N)N)NC(=O)[C@H](CCCNC(=N)N)NC(=O)[C@H](CCCNC(=N)N)NC(=O)[C@H](CCCNC(=N)N)NC(=O)[C@H](CCCNC(=N)N)NC(=O)[C@H](CCCNC(=N)N)NC(=O)[C@@H](N)CCCNC(=N)N)C(=O)O [Nona-L-arginine] |  |  |  | 0.11 ± 0.013 µM |  | essentially no cleavage | ~40 min | essentially none
